Data as given in patent publication US8580752B2, “Aromatic amides as potentiators of bioefficacy of anti-infective drugs” (priority 2005, dated 2013).
Values after ≈ are worked out from the molar mass of the structure shown. Read-outs that look alike come from different tables or passages of the source.

Key:
Gm +ve bacteria = assay: microbe, parasite or virus in culture; format: cell-based, Gram positive; conditions: for MIC: drug alone, Gm +ve bacteria
Gm −ve bacteria = assay: microbe, parasite or virus in culture; format: cell-based, Gram negative
M. tb = assay: MIC of anti infective drugs alone and with potentiators; format: cell-based, Mycobacterium tuberculosis; conditions: for MIC Drug + potentiator: Ciprofloxacin + potentiator; for % decrease in MIC: Ciprofloxacin + potentiator vs drug alone
M. tuberculosis H37Rv = assay: MIC by checkerboard method; format: cell-based, Mycobacterium tuberculosis; conditions: for MIC: Mycobacterium tuberculosis, Rifampicin alone
MRSA = assay: MIC by checkerboard method, comparison with piperine; format: cell-based, Staphylococcus aureus; conditions: Tables 5A/5B; for MIC: Staphylococcus aureus, read-out: MIC Mupirocin
S aureus ATCC 29213 = assay: MIC by checkerboard method; format: cell-based, Staphylococcus aureus; conditions: for MIC: Staphylococcus aureus, ATCC29213, Tables 5A/5B, read-out: MIC Mupirocin; for MIC Amikacin / MIC Ciprofloxacin: Tables 5A/5B
[1] = test system: M. intracellure ATCC 13950; assay: MIC by checkerboard method; format: cell-based
M. avium ATCC 49601 = assay: MIC by checkerboard method; format: cell-based
M. tuberculosis 611 = assay: MIC by checkerboard method; format: cell-based, Mycobacterium tuberculosis
Description: (§1) This checkerboard technique can be performed with liquid or semisolid (agar) media.
(§2) In this method the agar (Mueller Hinton agar, Middlebrook 7H10 agar) was autoclaved and allowed to cool to 55° C. to 50° C. The combination of the standard drug and the potentiator was added to the agar. Serial two fold dilutions of each of standard drug and the potentiator were prepared in appropriate solvents. In order to maintain the desired concentrations of both agar and drugs, and to rule out the effect of solvent, the volume of solvent (containing standard drug or potentiator) added to agar was kept small (i.e ≦5% of the total volume). After the agar plates have been poured and allowed to dry, the bacteria to be tested were applied to the surface of agar with a replicating device designed to deliver a standard inoculum (approx 10^4 cfu|spot). The plates were incubated at 37° C. for 24 hrs (3 weeks in case of Mycobacterium tuberculosis)
(§3) The above-mentioned checkerboard was also performed with liquid media in a microtiter plate format. This method was used to study the combination of antibacterial/antifungal/antiviral drugs with potentiator.

M. tuberculosis 615 = assay: MIC by checkerboard method; format: cell-based, Mycobacterium tuberculosis
Description: as §1, §2, §3

[2] = with the labelled potentiator +6.25 μg/ml
[3] = with the labelled potentiator +12.5 μg/ml
[4] = with the labelled potentiator +25.0 μg/ml
[5] = with the labelled potentiator +50.0 μg/ml
[6] = Mycobacterium tuberculosis, Rifampicin alone
[7] = with compound of formula 1a 0.09 μg/ml
[8] = with compound of formula 1a 0.78 μg/ml
[9] = with compound of formula 1a 6.25 μg/ml
[10] = with compound of formula 1a 50.0 μg/ml

## CCCCC(/C=C/C(=O)N1CCCCC1)=C\c1ccc2c(c1)OCO2 [5-(3,4-methylenedioxyphenyl)-4-n-butyl-2E,4E-pentadienoic acid piperidide]
Gm +ve bacteria
  % decrease in MIC: 50-76%
  MIC Drug + potentiator: 0.06 to 8 µg/mL
Gm −ve bacteria
  % decrease in MIC: 0-50%
  MIC Drug + potentiator: 0.03 to 0.25 µg/mL
M. tb
  MIC Drug + potentiator: 0.25 to 0.5 µg/mL
  % decrease in MIC: 50%

## O=C(/C=C/C=C/c1ccc2c(c1)OCO2)N1CCCCC1 [Piperine, reference compound]
M. tuberculosis H37Rv; Tables 5A/5B, with the labelled potentiator +6.25 μg/ml, M tuberculosis H37Rv
  MIC Rifampicin: 0.12 µg/mL
M. tuberculosis H37Rv; Tables 5A/5B, with the labelled potentiator +12.5 μg/ml, M tuberculosis H37Rv
  MIC Rifampicin: 0.06 µg/mL
M. tuberculosis H37Rv; Tables 5A/5B, with the labelled potentiator +25.0 μg/ml, M tuberculosis H37Rv
  MIC Rifampicin: 0.06 µg/mL
MRSA; [2]
  MIC: 0.12 µg/mL
  MIC Amikacin: 4.0 µg/mL
  MIC Ciprofloxacin: 32 µg/mL
MRSA; [3]
  MIC: 0.12 µg/mL
  MIC Amikacin: 4.0 µg/mL
  MIC Ciprofloxacin: 32 µg/mL
MRSA; [4]
  MIC: 0.06 µg/mL
  MIC Amikacin: 4.0 µg/mL
  MIC Ciprofloxacin: 32 µg/mL
MRSA; [5]
  MIC: 0.06 µg/mL
  MIC Amikacin: 4.0 µg/mL
  MIC Ciprofloxacin: 16 µg/mL
S aureus ATCC 29213; [2]
  MIC: 0.12 µg/mL
  MIC Amikacin: 2.0 µg/mL
  MIC Ciprofloxacin: 0.25 µg/mL
S aureus ATCC 29213; [3]
  MIC: 0.12 µg/mL
  MIC Amikacin: 1.0 µg/mL
  MIC Ciprofloxacin: 0.25 µg/mL
S aureus ATCC 29213; [4]
  MIC: 0.06 µg/mL
  MIC Amikacin: 0.5 µg/mL
  MIC Ciprofloxacin: 0.12 µg/mL
S aureus ATCC 29213; [5]
  MIC: 0.06 µg/mL
  MIC Amikacin: 0.25 µg/mL
  MIC Ciprofloxacin: 0.12 µg/mL

## CCC(CCC(=O)N1CCCCC1)Cc1ccc2c(c1)OCO2 (centres unmarked) [5-(3,4-methylenedioxyphenyl)-4-ethyl-pentanoic acid piperidide]
Gm +ve bacteria
  % decrease in MIC: 0-50%
  MIC Drug + potentiator: 0.03 to 0.25 µg/mL

## CC(/C=C/C(=O)NC(C)c1ccc(Br)cc1)=C\c1ccc2c(c1)OCO2 (centres unmarked) [5-(3,4-methylenedioxyphenyl)-4-methyl-2E,4E-pentadienoic acid-1-(4-bromophenyl)ethylamide]
Gm +ve bacteria
  % decrease in MIC: 50-76%
  MIC Drug + potentiator: 0.06 to 8 µg/mL
Gm −ve bacteria
  % decrease in MIC: 0-50%
  MIC Drug + potentiator: 0.03 to 0.25 µg/mL
M. tb
  MIC Drug + potentiator: 0.25 to 0.5 µg/mL
  % decrease in MIC: 50%

## CO[C@H]1/C=C/O[C@@]2(C)Oc3c(C)c(O)c4c(O)c(c(/C=N/N5CCN(C)CC5)c(O)c4c3C2=O)NC(=O)/C(C)=C\C=C\[C@H](C)[C@H](O)[C@@H](C)[C@@H](O)[C@@H](C)[C@H](OC(C)=O)[C@@H]1C [Rifampicin, reference compound]
[1]; Rifampicin alone
  MIC: 2 µg/mL
M. tuberculosis H37Rv; M. tuberculosis H37Rv, read-out: MIC of Rifampicin
  MIC: 0.12 µg/mL
M. tuberculosis H37Rv; Tables 5A/5B, M tuberculosis H37Rv, read-out: MIC Rifampicin
  MIC: 0.12 µg/mL
M. avium ATCC 49601; Mycobacterium avium, ATCC49601, Rifampicin alone
  MIC: 2 µg/mL
M. tuberculosis 611; [6]
  MIC: 0.06 µg/mL
M. tuberculosis 615; [6]
  MIC: 0.06 µg/mL

## CCC(/C=C/C(=O)N1CCC(O)CC1)=C\c1ccc2c(c1)OCO2 [5-(3,4-methylenedioxyphenyl)-4-ethyl-2E,4E-pentadienoic acid-4-hydroxypiperidide]
Gm +ve bacteria
  % decrease in MIC: 0-50%
  MIC Drug + potentiator: 0.03 to 0.25 µg/mL

## CCn1cc(C(=O)O)c(=O)c2cc(F)c(N3CCNCC3)cc21 [Norfloxacin, reference compound]
Gm +ve bacteria
  MIC: 0.12 to 32 µg/mL (≈ 0.376 to 100 µM)
Gm −ve bacteria; drug alone, Gm −ve bacteria
  MIC Drug alone: 0.03 to 64 µg/mL

## CCC(/C=C/C(=O)N1CCCC1)=C\c1ccc2c(c1)OCO2 [5-(3,4-methylenedioxyphenyl)-4-ethyl-2E,4E-pentadienoic acid pyrrolidide]
[1]; [7]
  MIC of Rifampicin: 2.0 µg/mL
[1]; [8]
  MIC of Rifampicin: 1.0 µg/mL
[1]; [9]
  MIC of Rifampicin: 1.0 µg/mL
[1]; [10]
  MIC of Rifampicin: 1.0 µg/mL
M. tuberculosis H37Rv; with compound of formula 1a 0.09 μg/ml, M. tuberculosis H37Rv
  MIC of Rifampicin: 0.03 µg/mL
M. tuberculosis H37Rv; with compound of formula 1a 0.78 μg/ml, M. tuberculosis H37Rv
  MIC of Rifampicin: 0.03 µg/mL
M. tuberculosis H37Rv; with compound of formula 1a 6.25 μg/ml, M. tuberculosis H37Rv
  MIC of Rifampicin: 0.03 µg/mL
M. tuberculosis H37Rv; with compound of formula 1a 50.0 μg/ml, M. tuberculosis H37Rv
  MIC of Rifampicin: 0.03 µg/mL
M. avium ATCC 49601; [7]
  MIC of Rifampicin: 2.0 µg/mL
M. avium ATCC 49601; [8]
  MIC of Rifampicin: 2.0 µg/mL
M. avium ATCC 49601; [9]
  MIC of Rifampicin: 1.0 µg/mL
M. avium ATCC 49601; [10]
  MIC of Rifampicin: 1.0 µg/mL
M. tuberculosis 611; [7]
  MIC of Rifampicin: 0.03 µg/mL
M. tuberculosis 611; [8]
  MIC of Rifampicin: 0.03 µg/mL
M. tuberculosis 611; [9]
  MIC of Rifampicin: 0.03 µg/mL
M. tuberculosis 611; [10]
  MIC of Rifampicin: 0.03 µg/mL
M. tuberculosis 615; [7]
  MIC of Rifampicin: 0.03 µg/mL
M. tuberculosis 615; [8]
  MIC of Rifampicin: 0.03 µg/mL
M. tuberculosis 615; [9]
  MIC of Rifampicin: 0.03 µg/mL
M. tuberculosis 615; [10]
  MIC of Rifampicin: 0.03 µg/mL

## CC1COc2c(N3CCN(C)CC3)c(F)cc3c(=O)c(C(=O)O)cn1c23 (centres unmarked) [Ofloxacin, reference compound]
Gm +ve bacteria
  MIC: 12 to 32 µg/mL (≈ 33.2 to 88.6 µM)
Gm −ve bacteria; drug alone, Gm −ve bacteria, read-out: MIC Drug alone
  MIC: 0.06 to 32 µg/mL (≈ 0.166 to 88.6 µM)
M. tb; Mycobacterium tuberculosis, drug alone
  MIC: 0.5 to 2.5 µg/mL

## CCC(/C=C/C(=O)N1CCCCC1)=C\c1ccc(OC)c(OC)c1 [4-ethyl-5-(3,4-dimethoxyphenyl)-2E,4E-pentadienoic acid piperidide]
Gm +ve bacteria
  % decrease in MIC: 50-76%
  MIC Drug + potentiator: 0.06 to 8 µg/mL
Gm −ve bacteria
  % decrease in MIC: 0-50%
  MIC Drug + potentiator: 0.03 to 0.25 µg/mL
M. tb
  MIC Drug + potentiator: 0.25 to 0.5 µg/mL
  % decrease in MIC: 50%

## CCC(/C=C/C(=O)N1CCCCC1)=C\c1cc2c(c([N+](=O)[O-])c1)OCO2 [5-(3,4-methylenedioxy-5-nitrophenyl)-4-ethyl-2E,4E-pentadienoic acid piperidide]
Gm +ve bacteria
  % decrease in MIC: 0-50%
  MIC Drug + potentiator: 0.03 to 0.25 µg/mL

## CCN(CC)C(=O)/C=C/C(C)=C/c1ccc2c(c1)OCO2 [Formula 1a, R = CH3, do, R5 = R6 = C2H5, 5-(3,4-methylenedioxyphenyl)-4-methyl-2E,4E-pentadienoic acid-N,N-diethylamide]
Gm +ve bacteria
  % decrease in MIC: 50-76%
  MIC Drug + potentiator: 0.06 to 0.12 µg/mL

## CC(/C=C/C(=O)N1CCN(C)CC1)=C\c1ccc2c(c1)OCO2 [5-(3,4-methylenedioxyphenyl)-4-methyl-2E,4E-pentadienoic acid-N-methylpiperazide]
Gm +ve bacteria
  % decrease in MIC: 50-76%
  MIC Drug + potentiator: 0.06 to 0.12 µg/mL
